This is an account of results in patent US20070208074A1, “Methods and compositions for treating and preventing tumors” (priority 2006, published 2007).

One assay concerns SF188 cells. The assay can be described thus: Growth curve / population growth with LIF. The assay is classed as cell-based, human. How it is done: (§1) FIG. 2B is a series of graphs showing growth curves of PTEN-mutant glioma cell lines (U87 and A172) and PTEN-expressing (SF188) glioma cells lines that were treated with LIF (10 ng/ml daily) or left untreated.
FIG. 2C is a bar graph showing the population growth of SF188 cells infected with a retrovirus containing an IRES-GFP cassette alone or that also encodes wild type STAT3 or a dominant negative STAT3 (S3D).

Assay [1] relates to control neuroblastoma cell line SK-N-MC. The assay can be described thus: LIF-induced STAT3 tyrosine phosphorylation, immunoblot. It is filed as cell-based. As to conditions: serum starved 24 hours, 10 ng/ml LIF for 15 minutes. On the technique in general: In western blotting, separated proteins are transferred to a membrane and probed.
The subject of the next assay is LN229 cells. Kind of assay: Population growth with LIF after lentiviral infection. The conditions noted are these: LIF 10 ng/ml daily; control lentivirus-infected LN229; n=3, p<0.05. It is filed as cell-based, human. The source says:
FIG. 2D is a pair of immmunoblots showing STAT3 and actin levels in 293T cells infected with either control lentivirus or lentivirus encoding one of two small interfering hairpin RNAs directed at STAT3 and selected with puromycin (left panel). […] The right panel is a graph showing population growth of LN229 cells infected with control lentivirus or lentivirus encoding stat3i1 or stat3i2 and selected with puromycin.
Recombinant retroviruses were made by transfecting 293T cells with pMD.MLV gag.pol, pHDM.G (VSVG pseudotype), and the transfer plasmid (i.e. pBABE). Cells were infected with equal amounts of retroviruses in the presence of 8 μg/ml polybrene (Sigma). A population of infected cells for each construct was collected by sorting cells for GFP expression. PTEN−/− astrocytes were infected with pBABE or pBABE/S3C retroviruses and infected cells were selected with puromycin (4 μg/ml). PTEN flox/flox astrocytes were infected with MyrAkt and infected cells were selected with 250 μg/ml hygromycin (Invitrogen). Cloning of recombinant lentiviruses coding for a short hairpin RNA directed against STAT3 or human IL-8 was carried out using the pLL3.7 vector. […]

Assay [2] deals with PTEN-deficient glioma cells (U87, A172, and U138). Kind of assay: LIF-induced STAT3 tyrosine phosphorylation, immunoblot. The assay is classed as cell-based, human. The conditions noted are these: serum starved 24 hours, 10 ng/ml LIF for 15 minutes. Here is the method:
(§2) FIG. 2A is a series of immunoblots showing the levels of PYS3 and STAT3 in glioma cells that harbor PTEN mutations (U87, A172, and U138) or that express wild type PTEN (SF188 and LN229) with the STAT3 and PYS3 antibodies. Cells were serum starved for 24 hours and then treated with 100 ng/ml CNTF (C) or 10 ng/ml LIF (L) for 15 minutes.
(§3) The inhibition of the STAT3 signaling pathway was also evident in human glioma cell lines that harbor PTEN mutations.

For assay [3], the system named is wild type PTEN-expressing glioma cells (SF188 and LN229). The description is as above. It is filed as cell-based, human. The conditions noted are these: serum starved 24 hours, 10 ng/ml LIF for 15 minutes. Here is the method: as §2, §3
The test system of the next assay is U87 cells. Kind of assay: Growth curve with LIF. The conditions noted are these: LIF 10 ng/ml daily; PTEN-deficient cell line. The assay is classed as cell-based, human. Here is the method: as §1
The test system of another assay is A172 cells. The assay can be described thus: Growth curve with LIF. The assay is classed as cell-based, human. The conditions noted are these: LIF 10 ng/ml daily; PTEN-deficient cell line. How it is done: as §1
A further assay relates to rat neural stem cells. The assay can be described thus: BrdU incorporation with LIF. The assay is classed as cell-based. The conditions noted are these: LIF 10 ng/ml, 48 hrs; vector-infected cells vs no treatment; n=3, p<0.05. Here is the method:
FIG. 2E (right panel) is a bar graph showing BrdU incorporation in rat neural stem cells treated with LIF (10 ng/ml, 48 hrs) following infection with lentivirus and selection with puromycin.
Background: Incorporation of labelled thymidine or its analogues reports DNA synthesis.

For the next assay, the system named is U87-S3C cells. The assay can be described thus: Cell spreading assay on myelin. It is filed as cell-based. As to conditions: recombinant human IL-8 50 ng/ml vs untreated U87-S3C cells on myelin; n=3, p<0.0005. Here is the method:
FIG. 4I is a graph quantifying the level of normalized cell spreading. IL-8 addition rescues STAT3 suppression of glioma cell spreading on myelin.
1×10^4 cells were seeded onto glass coverslips pre-coated with polyornithine ([…]) and additionally coated with PBS or 20 μg/ml myelin. Where indicated recombinant human IL-8 (R&D) was added at a concentration of 50 ng/ml. Cells were incubated at 37° C. for 1 hour to attach and then fixed with 4% paraformaldehyde for 20 minutes at RT. Coverslips were stained with phallotoxin for 20 minutes according to the manufacturer's directions (Molecular probes). Nuclei were counterstained with 0.2 μg/ml Hoechst (Sigma). Spread versus unspread cells were counted blind, and a percentage of spread cells over the total number of cells calculated. Pictures were taken at 60× using a Nikon inverted microscope.

As to “LIF: cytokine ligand of leukemia inhibitory factor receptorβ (LIFRβ), used at 10 ng/ml”, in the assay with SF188 cells (LIF 10 ng/ml daily vs untreated, n=3, p<0.05), the cell population growth entry is on record as “significantly reduced”. Further, the population growth result is “significant reduction in population growth” in the assay on SF188 cells (LIF 10 ng/ml daily, SF188 infected with control-vector or wild type STAT3 retrovirus, n=3, p<0.01) and “significant reduction in growth” with LN229 cells. The values for the STAT3 tyrosine phosphorylation entry in assay [1], in [2] and in assay [3] were “robustly induced STAT3 tyrosine phosphorylation”, “failed to effectively induce the STAT3 phosphorylation” and “robustly induced STAT3 tyrosine phosphorylation”, respectively. Besides, the proliferation result in the assay with U87 cells and with A172 cells was “little effect on the proliferation” each time. In addition, in the assay on rat neural stem cells, the BrdU incorporation entry is “significantly less BrdU incorporation”.

“IL-8: recombinant human IL-8 (R&D) added at 50 ng/ml”: the “cell spreading on myelin” value in the assay with U87-S3C cells is reported as “significantly more U87-S3C cells spread on myelin”.
